Measurements published in paper PMC9779727, “Identification of Novel Artemisinin Hybrids Induce Apoptosis and Ferroptosis in MCF-7 Cells” (International Journal of Molecular Sciences, 2022).

Key:
[1] = test system: breast cancer MDA-MB-231 cells; assay: MTT antiproliferation assay, MDA-MB-231; type: cell-based, human; settings: 48 h, means ± SD, n = 3
Excerpt: The target hybrids A1–A15 were screened for their antiproliferation activities against five human cancer cell lines (lung cancer A549 cells, breast cancer MCF-7 and MDA-MB-231 cells, colon cancer HCT116 cells and ovarian cancer SK-OV-3 cells) in vitro by the standard MTT method, and 5-fluorouracil (5-FU) and ART were coassayed as controls. […] Therefore, the most promising hybrid, A8, was chosen for further exploration of the preliminary mechanism of MCF-7 cell antiproliferation.
Cytotoxicity of test compounds against five different tumor cell lines were evaluated using an MTT assay in vitro. Cells were seeded into 96-well plates at a density of 5 × 10^4 cells per well and stabilized at 37 °C with 5% CO2 for 24 h. Compounds A1–A15, ART and 5-FU were added to each well at various concentrations and then the cells were incubated for 48 h. The MTT solution (100 μL 0.5 mg/mL^−1) was added to each well, and the cells were incubated for another 4 h. Then, 150 μL DMSO was added to each well and the absorbance of samples was measured at 492 nm. The IC50 values were calculated according to Logit method after getting the inhibitory rate.

[2] = test system: MCF-7 cells; assay: Cell colony formation assay; type: cell-based, human; settings: 12 d
Method: We chose a cell colony formation assay to determine the antiproliferative effect of the compound more intuitively.
MCF-7 cells were seeded into 6-well plates at 37 °C with 5% CO2 for 24 h and then treated with compound A8 at various concentrations (0, 2.5, 5 and 10 μM), ART (10 μM) and 5-FU (10 μM) for 12 d. Then, cells were stained with Giemsa and clones number were counted directly with naked eyes.

[3] = test system: MCF-7 cells; assay: Annexin V-FITC/PI apoptosis assay (flow cytometry); type: cell-based, human; settings: 48 h
Method: To investigate whether hybrid A8 exerts an antitumor effect on MCF-7 cells by inducing apoptosis, an annexin V-FITC/PI binding assay was performed. MCF-7 cells were treated with vehicle or various concentrations (2.5, 5 and 10 μM) of hybrid A8 for 48 h and were then stained with FITC-annexin V and propidium iodide (PI). The percentages of apoptotic MCF-7 cells were determined by flow cytometry. A8-induced apoptosis in a dose-dependent manner. The percentages of total apoptotic cells (Q1-UR + Q1-LR) were 17.99% (2.5 μM), 35.98% (5 μM) and 48.65% (10 μM). […] In addition, obvious changes in cell morphology were also observed.
Cells apoptosis was assessed using Annexin V/PI staining assay. MCF-7 cells were seeded into 6-well plates for 24 h and then treated with compound A8 at various concentrations (0, 2.5, 5 and 10 μM) for 48 h. Then, cells were collected, washed with 500 μL annexin-binding buffer and stained with 5 μL annexin V-FITC and 5 μL PI for 15 min at 25 °C. After that, the samples were analyzed by flow cytometry (Beckman Coulter cytoFLEX, Brea, CA, USA).

[4] = test system: Bax; assay: Western blotting, Bax expression; type: cell-based, human; settings: MCF-7, 0, 2.5, 5 and 10 μM, 48 h, GAPDH internal control
Method: Based on the JC-1 staining results, we further analyzed the expression of proteins related to apoptosis using a Western blotting assay with GAPDH as an internal control. […] Then, an excess of cytochrome C can enhance caspase-3 activation to stimulate apoptosis.
(§1) MCF-7 cells were seeded at a density of 4 × 10^5 cells per well and treated with various concentrations of compound A8 (0, 2.5, 5 and 10 μM) for 48 h. After this, cells were collected and washed twice with ice-cold DPBS. The pellets were resuspended in a total protein extraction buffer (20 mM HEPES, 350 mM NaCl, 20% glycerol, 1% NP-40, 1 mM MgCl2, 0.5 mM EDTA, 0.1 mM EGTA, 0.1 mM DTT, 0.1 mM PMSF) containing a protease inhibitor cocktail and incubated on ice for 30 min with intermittent mixing. The protein concentration was measured using the Bradford reagent (Bio-Rad Laboratories Inc., Hercules, CA, USA). An equal amount (20 μg) of protein was loaded on 10% polyacrylamide gels and transferred to a nitrocellulose membrane. After blocking with 5% skimmed milk, the membrane was incubated at 4 °C overnight with specific primary antibodies. The membrane was washed and incubated at room temperature for 1 h with secondary antibodies conjugated with horseradish peroxidase (HRP). Finally, the immunoblot was developed for visualization using a chemiluminescence kit. […]

[5] = test system: MCF-7 cells; assay: GSH level detection; type: cell-based, human
Excerpt: (§2) We also determined the effect of A8 on the expression of GSH and MDA (lipid peroxidation).
(§3) Lipid peroxidation assay kit (Beyotime, Shanghai, China) was used to detect malonaldehyde (MDA), together with GSH level assay, present in samples, as per the manufacturer’s instruction with slight modifications.

[6] = test system: MCF-7 cells; assay: Lipid peroxidation (MDA) detection; type: cell-based, human; settings: MCF-7
Excerpt: as §2, §3

[7] = test system: GPX4; assay: Western blotting, GPX4 expression; type: cell-based, human; settings: MCF-7, 0, 2.5, 5 and 10 μM, 48 h
Method: We examined the effect of A8 on the expression of GPX4 as well, which is vital in preventing ferroptosis. […] Thus, we concluded that A8 induced the accumulation of ROS and lipid peroxidation and suppressed GSH levels and the expression of GPX4, thereby leading to the induction of ferroptosis.
as §1

[8] = target: T1, CYP3A4 (Homo sapiens, UniProt P08684); assay: CYPs inhibition assay, CYP3A4; type: in vitro ADME
T1 construct: from tissue; host or cells: human liver microsomes
Method: Finally, we evaluated the interaction between the hybrid A8 and five major metabolic enzymes (CYP1A2, CYP2C9, CYP2C19, CYP2D6 and CYP3A4) in the human body. […] It is also one of the directions for our further transformation and optimization.
Cytochrome P450 inhibition was evaluated in human liver microsomes (0.253 mg/mL) using five […] (CYP1A2, α-Naphthoflavone; CYP2C9, Sulfaphenazole; CYP2C19, Benzylnirvanol; CYP2D6, Quinidine; and CYP3A4, Ketoconazole.) in the presence of compound A8 (10 μM). After preincubation for 10 min at 37 °C, an NADPH-regenerating system was added. After the mixed system was incubated for 15 min at 37 °C, the reaction was stopped by adding 400 μL of cold stop solution (200 ng/mL tolbutamide and 200 ng/mL labetalol in acetonitrile). Then, the mixture was centrifuged, and the supernatant was analyzed by LC-MS/MS.

T1 sequence (P08684 whole entry): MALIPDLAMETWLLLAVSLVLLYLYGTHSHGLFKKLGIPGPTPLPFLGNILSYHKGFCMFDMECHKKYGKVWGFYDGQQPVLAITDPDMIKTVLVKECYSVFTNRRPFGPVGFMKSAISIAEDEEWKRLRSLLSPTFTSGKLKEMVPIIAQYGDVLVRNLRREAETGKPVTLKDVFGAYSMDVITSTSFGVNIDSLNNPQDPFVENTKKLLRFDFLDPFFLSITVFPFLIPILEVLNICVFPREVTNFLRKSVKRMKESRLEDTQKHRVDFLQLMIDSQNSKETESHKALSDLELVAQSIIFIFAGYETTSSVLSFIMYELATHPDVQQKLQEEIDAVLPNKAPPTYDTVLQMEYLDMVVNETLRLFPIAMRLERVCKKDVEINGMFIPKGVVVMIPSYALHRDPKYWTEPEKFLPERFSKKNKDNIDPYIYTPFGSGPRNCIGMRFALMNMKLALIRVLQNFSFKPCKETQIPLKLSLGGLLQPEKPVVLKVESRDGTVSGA

`CC1CCC2C(C)C(OC(=O)CCC(=O)NCc3nnc(Nc4ccc(F)cc4F)o3)OC3OC4(C)CCC1C32OO4` (stereo not drawn) [A8] was tested, and the IC50 [1] was 5.27 ± 0.02 µM, the “cell colony number (in words)” value ([2]; MCF-7, 0, 2.5, 5 and 10 μM) was “decreased in a dose-dependent manner” and the “antiproliferative effect in colony formation compared with controls (in words)” value ([2]; MCF-7, same administration concentration (10 μM)) was “better than that of 5-FU and ART”. The “percentage of total apoptotic cells (Q1-UR + Q1-LR)” value (“percentage of total apoptotic cells” below) ([3]; MCF-7, 2.5 μM) was 17.99%, the “percentage of total apoptotic cells” value ([3]; MCF-7, 5 μM) was 35.98% and the “percentage of total apoptotic cells” value ([3]; MCF-7, 10 μM) was 48.65%. For the same compound, the “expression of Bax (in words)” value [4] was “upregulated”, the “GSH level (in words)” value [5] was “decreased significantly” and the “MDA level (in words)” value [6] was “increased at higher concentrations”. The “GPX4 expression (in words)” value [7] was “dose-dependent inhibition of GPX4 expression”, the “inhibitory effect on CYP3A4 (in words)” value ([8]; 10 μM) was “moderate inhibitory effect” and the “Inhibition at 10 μM (%) CYP3A4” value ([8]; human liver microsomes) was 55.8%.
